# Test results from patent US7390830B1, “Remedies or prophylactics for diseases in association with chemokines” (Teijin Limited, priority 1999, dated 2008).
# System: THP-1 cells
# Experiment: Inhibitory activity against cell chemotaxis caused by MCP-1
# Assay type: cell-based
# Conditions: Homo sapiens, MCP-1 20 ng/mL
# Text: In order to determine the inhibitory activity of the compounds according to the present invention against the cell chemotaxis, human monocytic leukemia cell line THP-1 was used as chemotactic cells according to the method of Fall et al. (J. Immunol. Methods, 1980, 33, 239-247) to determine the cell chemotaxis caused by monocyte chemotactic factor MCP-1 as follows: Namely, 2×10^6 cells/mL of the THP-1 cells [suspended in RPMI-1640 (Flow Laboratories Co.) 10% FCS] were placed in the upper chamber (200 μL) of a 96-well microchemotaxis chamber (Neuroprobe®), and human recombinant MCP-1 (Peprotech Co.) diluted with the same solution so as to provide the final concentration of 20 ng/mL was placed in the lower chamber (35 μL). A polycarbonate filter (PVP-free, Neuroprobe®) was placed between the two chambers. These were incubated in the presence of 5% of CO2 at 37° C. for 2 hours.
# The filter was removed, and the cells which had migrated to the undersurface of the filter were immobilized, stained using Diff Quick (Kokusai Shiyaku Co.) and then measured at a measuring wavelength of 550 nm using a plate reader (Molecular Device Co.) to determine the means of 3 wells. Thereby, the indication of the number of cells migrated was obtained. The test compound together with the THP-1 cells was added to the upper chamber at various concentrations to determine the inhibitory activity against cell chemotaxis [degree of inhibition: IC50 (μM)].
row,Compound,IC50
1,"Cc1noc(C)c1CN1CC[C@@H](NC(=O)CNC(=O)c2cc(F)cc(C(F)(F)F)c2)C1 [Compd. No. 1191, (R)-3-[N-[3-fluoro-5-(trifluoromethyl)benzoyl]glycyl]amino-1-(3,5-dimethylisoxazol-4-ylmethyl)-pyrrolidine]",≤ 100 nM
2,"C=Cc1ccc(CN2CC[C@@H](NC(=O)CNC(=O)c3cc(C(F)(F)F)ccc3N)C2)cc1 [Compd. No. 1701, (R)-3-[[N-(2-amino-5-(trifluoromethyl)benzoyl)glycyl]amino]-1-(4-vinylbenzyl)pyrrolidine]",≤ 100 nM
3,"COc1ccc(CN2CC[C@@H](NC(=O)CNC(=O)c3cc(OC(F)(F)F)ccc3N)C2)cc1O [Compd. No. 1896, (R)-3-[[N-(2-amino-5-trifluoromethoxybenzoyl)glycyl]amino]-1-(3-hydroxy-4-methoxybenzyl)pyrrolidine]",≤ 100 nM
4,"Nc1cc(Cl)ccc1CN1CC[C@@H](NC(=O)CNC(=O)c2cc(OC(F)(F)F)ccc2N)C1 [Compd. No. 1921, (R)-3-[[N-(2-amino-5-trifluoromethoxybenzoyl)glycyl]amino]-1-(2-amino-4-chlorobenzyl)pyrrolidine]",≤ 100 nM
5,"Nc1cc(CN2CC[C@@H](NC(=O)CNC(=O)c3cc(C(F)(F)F)ccc3N)C2)ccc1Cl [Compd. No. 2132, (R)-1-(3-amino-4-chlorobenzyl)-3-[[N-(2-amino-5-trifluoromethylbenzoyl)glycyl]amino]pyrrolidine]",≤ 100 nM
6,"CNc1cc(CN2CC[C@@H](NC(=O)CNC(=O)c3cc(C(F)(F)F)ccc3N)C2)ccc1O [Compd. No. 2158, (R)-3-[[N-(2-amino-5-trifluoromethylbenzoyl)glycyl]amino]-1-(3-methylamino-4-hydroxybenzyl)pyrrolidine]",≤ 100 nM

# Second part, the compound after the results:
row,IC50,Compound
1,≤ 100 nM,"Nc1cc(CN2CCC(CNC(=O)CNC(=O)c3cc(F)c(F)cc3N)CC2)ccc1O [Compd. No. 2141, 4-[[N-(2-amino-4,5-difluorobenzoyl)glycyl]aminomethyl]-1-(3-amino-4-hydroxybenzyl)piperidine]"
2,≤ 100 nM,"Nc1ccc(Br)cc1C(=O)NCC(=O)NCC1CCN(Cc2ccc(Cl)cc2)CC1 [Compd. No. 1042, 4-[N-(2-amino-5-bromobenzoyl)glycyl]aminomethyl-1-(4-chlorobenzyl)piperidine]"
3,≤ 100 nM,"Nc1cc(Cl)ccc1CN1CCC(CNC(=O)CNC(=O)c2cc(C(F)(F)F)ccc2N)CC1 [Compd. No. 1919, 4-[[N-(2-amino-5-trifluoromethylbenzoyl)glycyl]aminomethyl]-1-(2-amino-4-chlorobenzyl)piperidine]"
4,≤ 100 nM,"Cc1ccc(CN2CCC(CNC(=O)CNC(=O)c3cc(F)c(F)cc3N)CC2)cc1N [Compd. No. 2114, 4-[[N-(2-amino-4,5-difluorobenzoyl)glycyl]aminomethyl]-1-(3-amino-4-methylbenzyl)piperidine]"
5,≤ 100 nM,"Nc1ccc(C(F)(F)F)cc1C(=O)NCC(=O)N[C@@H]1CCN(c2ccc3ocnc3c2)C1 [Compd. No. 2189, (R)-3-[[N-(2-amino-5-trifluoromethylbenzoyl)glycyl]amino]-1-(benz[d]oxazol-5-yl)pyrrolidine]"
6,≤ 100 nM,"O=C(CNC(=O)c1cccc(C(F)(F)F)c1)NCC1CCN(Cc2ccc(Cl)cc2)CC1 [Compd. No. 461, 1-(4-chlorobenzyl)-4-[[N-[3-(trifluoromethyl)benzoyl]glycyl]aminomethyl]piperidine]"

# Target: T1, human MCP-1 binding to THP-1 cells (Homo sapiens, UniProt P41597)
# T1 construct: endogenous in cells; host or cells: THP-1 (whole cells)
# T1 sequence (P41597 1-360 isoform P41597-2): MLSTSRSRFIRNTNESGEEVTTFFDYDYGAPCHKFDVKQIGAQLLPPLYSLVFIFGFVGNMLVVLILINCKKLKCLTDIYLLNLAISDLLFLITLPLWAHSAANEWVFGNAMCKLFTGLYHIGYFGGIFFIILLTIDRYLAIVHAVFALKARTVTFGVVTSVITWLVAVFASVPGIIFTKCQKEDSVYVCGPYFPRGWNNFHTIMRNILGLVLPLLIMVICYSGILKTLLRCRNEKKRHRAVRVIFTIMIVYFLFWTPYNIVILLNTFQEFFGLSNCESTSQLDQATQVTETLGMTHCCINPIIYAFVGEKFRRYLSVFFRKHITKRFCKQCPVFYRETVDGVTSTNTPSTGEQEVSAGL
# Experiment: Inhibitory activity against binding of [125I]-labeled human MCP-1 to THP-1 cells (method 2)
# Conditions: concentration of 1 μM
# Text: Two kinds of DNA synthetic primers (5′-[…]-3′ (SEQ ID NO:1) and 5′-[…]-3′) (SEQ ID NO:2) having restriction enzyme recognition sites applied on the basis of the known human MCP-1 gene sequence (see, for example, Yoshimura, T. et al. FEBS Letters 1989, 244, 487-493) were used to amplify a cDNA derived from human vascular endothelial cells (purchased from Kurabow) according to a PCR method. The amplified fragment was cleaved with restriction enzymes (PstI and XbaI) and then ligated into a transfer vector pVL1393 (Invitrogen Co.). The resulting vector was co-transfected with an infectious baculovirus into Sf-9 insect cells. Human MCP-1 gene recombinant baculoviruses were isolated from the obtained supernatant by a plaque assay method.
# According to the method of Ishii, K. et al. (see Biochemical and Biophysical Research Communications, 1995, 206, 955-961), 5×10^6 cells of Sf-9 insect cells were infected with 5×10^7 PFU (plaque-forming units) of the above human MCP-1 gene recombinant baculoviruses and cultured in EX-CELL 401 medium for 7 days. The resulting culture supernatant was affinity purified by a heparin-Sepharose column (Pharmacia Co.) and then subjected to reverse phase HPLC (Vydac C18 column) to afford a purified human MCP-1. The protein labeling of the resulting purified human MCP-1 was requested for Amersham Co. to obtain a [^125I]-labeled human MCP-1 expressed with baculovirus (specific activity: 2000 Ci/mmol) prepared by the Bolten Hunter method. The resulting [^125I]-labeled human MCP-1 was used for the following tests.
# THP-1 cells which are human monocytic leukemia cell line were suspended in an assay buffer (containing 50 mM of HEPES, 11.0 mM of CaCl2, 5.0 mM of MgCl2 and 0.5% of BSA at pH 7.4) so as to provide 1×10^7 cells/mL to thereby obtain a cell suspension. A solution obtained by diluting the test compound with the assay buffer was used as a test compound solution. A solution prepared by diluting the above [^125I]-labeled human MCP-1 expressed with baculovirus with the assay buffer so as to provide 1 μCi/mL was used as a labeled ligand solution. In a 96-well filter plate (Millipore Co.), were aliquoted 25 μL of the test compound solution, 25 μL of the labeled ligand solution and 50 μL of the cell suspension in the order mentioned for each well. The solutions were stirred (100 μL of the reaction solution) and then incubated at 18° C. for 1 hour.
# After completing the reaction, the reaction solution was filtered through a filter, and the filter was washed with 200 μL of cold PBS twice (the reaction solution was filtered after adding 200 μL of the cold PBS). The filter was air-dried, and […] of liquid scintillator was then added by into each well to count the radioactivity retained by the cells on the filter using TopCount (Packard Instrument Co.). The count when 100 ng of the above human MCP-1 expressed with baculovirus(unlabeled) instead of the test compound was added was subtracted as nonspecific adsorption, and the count when the test compound was not added was 100%. Thereby, the inhibitory activity of the test compound against binding of the human MCP-1 to THP-1 cells was calculated. Inhibition ratio (%)={1−(A−B)/(C−B)}×100 (wherein A is the count when the test compound is added; B is the count when 100 ng of the unlabeled human MCP-1 is added; C is the count when only the [^125I]-labeled human MCP-1 is added).
row,Compound,inhibition at 1 µM
1,"COc1ncc(CN2CC[C@@H](NC(=O)CNC(=O)c3cc(C(F)(F)F)ccc3N)C2)c(OC)n1 [Compd. No. 2175, (R)-3-[[N-(2-amino-5-trifluoromethylbenzoyl)glycyl]amino]-1-(2,4-dimethoxypyrimidin-5-ylmethyl)pyrrolidine]",50 to 80%
2,"COc1ccc(CN2CCC(CNC(=O)CNC(=O)c3cccc(C(F)(F)F)c3)CC2)cc1O [Compd. No. 1452, 1-[3-hydroxy-4-methoxybenzyl]-4-[[N-(3-(trifluoromethyl)benzoyl)glycyl]aminomethyl]piperidine]",20 to 50%
3,"Nc1ccc(Cl)cc1C(=O)NCC(=O)N[C@@H]1CCN(Cc2ccc(Cl)cc2)C1 [Compd. No. 1084, (R)-1-(4-chlorobenzyl)-3-[[N-(2-amino-5-chlorobenzoyl)glycyl]amino]pyrrolidine]",50 to 80%
4,"COCCNC(=O)c1ccc(CN2CCC(CNC(=O)CNC(=O)c3cccc(C(F)(F)F)c3)CC2)cc1 [Compd. No. 1612, 1-[4-[N-(2-methoxyethyl)carbamoyl]benzyl]-4-[[N-(3-(trifluoromethyl)benzoyl)glycyl]aminomethyl]piperidine]",20 to 50%
5,"Cc1ccc(C(=O)NCC(=O)NCC2CCN(Cc3ccc(Cl)cc3)CC2)cc1Br [Compd. No. 1113, 4-[[N-(3-bromo-4-methylbenzoyl)glycyl]aminomethyl]-1-(4-chlorobenzyl)piperidine]",50 to 80%

# Now from value to compound:
row,inhibition at 1 µM,Compound
1,20 to 50%,"Nc1cc(F)c(F)cc1C(=O)NCC(=O)NCC1CCN(c2ccc3nonc3c2)CC1 [Compd. No. 2130, 4-[[N-(2-amino-4,5-difluorobenzoyl)glycyl]aminomethyl]-1-(benzo[c]furazan-5-yl)piperidine]"
2,> 80%,"Nc1ccc(C(F)(F)F)cc1C(=O)NCC(=O)N[C@@H]1CCN(c2ccc3ocnc3c2)C1 [Compd. No. 2189, (R)-3-[[N-(2-amino-5-trifluoromethylbenzoyl)glycyl]amino]-1-(benz[d]oxazol-5-yl)pyrrolidine]"
3,20 to 50%,"Cc1noc(C)c1N1CCC(CNC(=O)CNC(=O)c2cc(F)c(F)cc2N)CC1 [Compd. No. 2131, 4-[[N-(2-amino-4,5-difluorobenzoyl)glycyl]aminomethyl]-1-(3,5-dimethylisoxazol-4-yl)piperidine]"
